Converted amounts (≈) assume the structure as drawn.
How the values were obtained:
[1] = Equilibrium solubility at room temperature at different pH values (Tables 1, 4, note to Table 5)
Source text: Equilibrium solubility, at room temperature,
at different pH values, of Glibenclamide (G), its
sodium salt (G--Na), and a physical mixture thereof with
βCD (G/βCD) in a 1:1, 1:2, 1:3.
Equilibrium solubility (eq.) and instant solubility
at various times, at room temperature, at different pH values, […]

[2] = cited from earlier work
[3] = Dissolution: glibenclamide concentration versus time at room temperature in buffer (Table 3); type: physicochemical

SMILES: CN1C(C(=O)Nc2ccccn2)=C(O)c2ccccc2S1(=O)=O [P, Piroxicam]
- solubility thermodynamic ([1]; pH 1.2): 0.108 mg/mL (≈ 326 µM)
- solubility thermodynamic ([1]; pH 6): 0.076 mg/mL (≈ 229 µM)
- solubility thermodynamic ([1]; pH 7): 0.57 mg/mL (≈ 1720 µM)
- solubility thermodynamic ([1]; pH 7.5): 1.03 mg/mL (≈ 3110 µM)

SMILES: COc1ccc(Cl)cc1C(=O)NCCc1ccc(S(=O)(=O)NC(=O)NC2CCCCC2)cc1 [G, Glibenclamide]
- pKa [2]: 6.8
- solubility thermodynamic ([1]; pH 4): 0.004 mg/mL (≈ 8.1 µM)
- solubility thermodynamic ([1]; pH 7.39): 0.0188 mg/mL (≈ 38.1 µM)
- solubility thermodynamic ([1]; pH 7.5): 0.02 mg/mL (≈ 40.5 µM)
- solubility thermodynamic ([1]; pH 8.89): 0.299 mg/mL (≈ 605 µM)
- solubility thermodynamic ([1]; pH 9): 0.6 mg/mL (≈ 1210 µM)
- solubility thermodynamic ([1]; pH 9.53): 0.768 mg/mL (≈ 1550 µM)
- Glibenclamide concentration by dissolution ([3]; pH 1.4, 05 min): < 0.01 mg/mL
- Glibenclamide concentration by dissolution ([3]; pH 1.4, 15 min): < 0.01 mg/mL
- Glibenclamide concentration by dissolution ([3]; pH 1.4, 30 min): < 0.01 mg/mL
- Glibenclamide concentration by dissolution ([3]; pH 1.4, 40 min): < 0.01 mg/mL
- Glibenclamide concentration by dissolution ([3]; pH 1.4, 50 min): < 0.01 mg/mL
- Glibenclamide concentration by dissolution ([3]; pH 5.0, 05 min): < 0.01 mg/mL
- Glibenclamide concentration by dissolution ([3]; pH 5.0, 10 min): < 0.01 mg/mL
- Glibenclamide concentration by dissolution ([3]; pH 5.0, 20 min): < 0.01 mg/mL
- Glibenclamide concentration by dissolution ([3]; pH 5.0, 40 min): < 0.01 mg/mL
- Glibenclamide concentration by dissolution ([3]; pH 5.0, 50 min): < 0.01 mg/mL

SMILES: NS(=O)(=O)c1cc2c(cc1Cl)N=CNS2(=O)=O [Chlorothiazide]
- solubility thermodynamic [1]: 0.4 to 0.7 mg/mL (≈ 1350 to 2370 µM)

SMILES: COc1ccc(Cl)cc1C(=O)NCCc1ccc(S(=O)(=O)NC(=O)NC2CCCCC2)cc1 [G--Na]
- solubility thermodynamic ([1]; pH 9.3): 7 mg/mL (≈ 14200 µM)

— patent publication US5773029A, “High solubility multicomponent inclusion complexes consisting of an acidic drug, a cyclodextrin and a base” (Chiesi Farmaceutici S.p.A., priority 1994, dated 1998)
